These results are taken from US20060148858A1, “1, 2-Azole derivatives with hypoglycemic and hypolipidemic activity” (priority 2002, published 2006).

The structures appear in SMILES notation.

The subject of the assay is KKAY mice. Nature of the assay: Plasma anti-arteriosclerosis index-enhancing action in mice (Test Example 2). The assay is classed as in vivo. Conditions: Mus musculus, po, 96 h, 0.005% in powdery diet, four days, percent increase of (HDL cholesterol/total cholesterol)x100, non-treatment group taken as 100%.

`CCOc1nn(-c2ccc(C(F)(F)F)cn2)cc1CCCOc1cccc(CC(=O)O)c1` [Example 30, [3-(3-{3-ethoxy-1-[5-(trifluoromethyl)-2-pyridyl]-1H-pyrazol-4-yl}propoxy)phenyl]acetic acid]: the change in vivo at 0.005 % in diet was 19%.
In the case of `Cc1cccc(CC(=O)O)c1OCCCc1cn(-c2ccc(C(F)(F)F)cn2)nc1C1CCCCC1` [Example 316, [2-(3-{3-cyclohexyl-1-[5-(trifluoromethyl)-2-pyridinyl]-1H-pyrazol-4-yl}propoxy)-3-methylphenyl]acetic acid], the change in vivo at 0.005 % in diet was 10%.
`CCOc1nn(-c2ccc(C(F)(F)F)cn2)cc1CCCOc1ccccc1CC(=O)O` [Example 31, (2-(3-{3-ethoxy-1-[5-(trifluoromethyl)-2-pyridyl]-1H-pyrazol-4-yl}propoxy)phenyl]acetic acid]: the change in vivo at 0.005 % in diet was 16%.
As to `CCC(CC)c1nn(-c2ccc(Cl)cn2)cc1CCCOc1c(CC(=O)O)cccc1OC` [Example 223, (2-{3-[1-(5-chloro-2-pyridyl)-3-(1-ethylpropyl)-1H-pyrazol-4-yl]propoxy}-3-methoxyphenyl)acetic acid], the change in vivo at 0.005 % in diet turned out to be 12%.
For `COc1cccc(CC(=O)O)c1OCCCc1cn(-c2ccc(C(F)(F)F)nn2)nc1C(C)C` [Example 274, [2-(3-{3-isopropyl-1-[6-(trifluoromethyl)pyridazin-3-yl]-1H-pyrazol-4-yl}propoxy)-3-methoxyphenyl]acetic acid], the change in vivo at 0.005 % in diet worked out at 11%.
`O=C(O)CCc1cc(OCCCc2cn(-c3ccc(C(F)(F)F)cn3)nc2C2CCCCC2)nn1-c1ccccc1` [Example 189, 3-[3-(3-{3-cyclohexyl-1-[5-(trifluoromethyl)-2-pyridyl]-1H-pyrazol-4-yl}propoxy)-1-phenyl-1H-pyrazol-5-yl]propionic acid]: the change in vivo at 0.005 % in diet came to 20%.
On to `CCC(CC)c1nn(-c2ccc(C(F)(F)F)nn2)cc1CCCOc1c(C)cccc1CC(=O)O` [Example 340, [2-(3-{3-(1-ethylpropyl)-1-[6-(trifluoromethyl)pyridazin-3-yl]-1H-pyrazol-4-yl}propoxy)-3-methylphenyl]acetic acid], for which the change in vivo at 0.005 % in diet turned out to be 21%.
Take `COc1ccc(CC(=O)O)cc1OCCCc1cn(-c2ccc(C(F)(F)F)cn2)nc1C1CCCCC1` [Example 304, [3-(3-{3-cyclohexyl-1-[5-(trifluoromethyl)-2-pyridinyl]-1H-pyrazol-4-yl}propoxy)-4-methoxyphenyl]acetic acid]: the change in vivo at 0.005 % in diet was 13%.
